# Measurements taken from patent US20080019913A1 (UNIVERSITY OF ARIZONA OFFICE OF TECHNOLOGY TRANSFER, published 2008).
# Non-standard residues stand in square brackets, D forms with d. Residues, ends and D or L forms follow the SMILES beside them. No end group written: not given here. *: point of attachment. β‑lactoside = OC[C@H]1O[C@@H](O[C@H]2[C@H](O)[C@@H](O)[C@H](*)O[C@@H]2CO)[C@H](O)[C@@H](O)[C@H]1O; X2 = OC[C@H]1O[C@@H](O[C@H]2[C@H](O)[C@@H](O)[C@H](*)O[C@@H]2CO)[C@H](O)[C@@H](O)[C@H]1O; βGlc = OC[C@H]1O[C@@H](*)[C@H](O)[C@@H](O)[C@@H]1O; β‑D‑xyloside = O[C@@H]1[C@@H](O)[C@H](*)OC[C@H]1O; X1 = O[C@@H]1[C@@H](O)[C@H](*)OC[C@H]1O; NMeF = CN[C@@H](Cc1ccccc1)C(=O)O
# B1: DAMGO analog compound (5), C-terminal L-serine amide beta-lactoside (peptide)
# peptide: Y[dA]G[NMeF]S(β‑lactoside)-NH2
# modifications: N-terminus assumed
# SMILES: C[C@@H](NC(=O)[C@@H](N)Cc1ccc(O)cc1)C(=O)NCC(=O)N(C)[C@@H](Cc1ccccc1)C(=O)N[C@@H](CO[C@@H]1O[C@H](CO)[C@@H](O[C@@H]2O[C@H](CO)[C@H](O)[C@H](O)[C@H]2O)[C@H](O)[C@H]1O)C(N)=O
# notes: Glycopeptide; also called glycopeptide 5
# B2: DAMGO analog compound (2), C-terminal L-serine amide (peptide)
# peptide: YAGFS
# HELM: PEPTIDE1{Y.[dA].G.[meF].S.[am]}$$$$V2.0; N-terminus assumed
# SMILES: C[C@@H](NC(=O)[C@@H](N)Cc1ccc(O)cc1)C(=O)NCC(=O)N(C)[C@@H](Cc1ccccc1)C(=O)N[C@@H](CO)C(N)=O
# notes: Made by Fmoc synthesis on Rink amide resin; also called peptide 2
# B3: DAMGO analog compound (4), C-terminal L-serine amide beta-D-glucoside (peptide)
# peptide: Y[dA]G[NMeF]S(βGlc)-NH2
# modifications: N-terminus assumed
# SMILES: C[C@@H](NC(=O)[C@@H](N)Cc1ccc(O)cc1)C(=O)NCC(=O)N(C)[C@@H](Cc1ccccc1)C(=O)N[C@@H](CO[C@@H]1O[C@H](CO)[C@@H](O)[C@H](O)[C@H]1O)C(N)=O
# notes: Glycopeptide; also called glycopeptide 4
# B4: DAMGO analog compound (3), C-terminal L-serine amide beta-D-xyloside (peptide)
# peptide: Y[dA]G[NMeF]S(β‑D‑xyloside)-NH2
# modifications: N-terminus assumed
# SMILES: C[C@@H](NC(=O)[C@@H](N)Cc1ccc(O)cc1)C(=O)NCC(=O)N(C)[C@@H](Cc1ccccc1)C(=O)N[C@@H](CO[C@@H]1OC[C@@H](O)[C@H](O)[C@H]1O)C(N)=O
# notes: Glycopeptide; also called glycopeptide 3
# What was measured:
# adult male ICR mice = assay: 55° C. warm water tail-flick test (antinociception); assay type: in vivo, mouse; conditions: for A50 i.c.v. / A50 i.v.: mouse 55° C. tail-flick, time of peak effect; for A50 i.c.v.: i.c.v. administration; for A50 i.v.: i.v. administration
# Procedure: All in vivo studies used adult male ICR mice (25-30 g; Harlan Industries, Cleveland, Ohio, USA) that were maintained on a 12 h light/dark cycle (lights on at 07:00 hours) in a temperature and humidity-controlled animal colony. All testing was carried out between 10:00 and 15:00 hours. Studies were carried out in accordance with the Guide for the Care and Use of Laboratory Animals as adopted and promulgated by the National Institutes of Health.
# For intracerebroventricular (i.c.v.) injections, mice were lightly anesthetized with ether and an incision was made in the scalp. Injections were performed using a 10 μL Hamilton microsyringe (Hamilton Company, Reno, Nev., USA) at a point 2 mm caudal and 2 mm lateral from bregma. Compounds were injected at a depth of 3 mm in a volume of 5 μL. Intravenous (i.v.) injections were performed by restraining the mouse in a Plexiglas holder, dipping the tail for 10 seconds in 40° C. warm water to dilate the tail vein, and subsequent injection into the vein with a 30-gauge needle. All compounds were dissolved in distilled water (i.c.v. injections) or physiologic saline (i.v. injections).
# Antinociception was assessed using the 55° C. warm water tail-flick test. The latency to the first sign of a rapid tail-flick was taken as the behavioral end-point. Each mouse was first tested for baseline latency by immersing its tail in the water and recording the time to response. Mice not responding within 5 seconds were excluded from further testing (average latency=2.1 seconds). Mice were then administered the test compound and tested for antinociception at 10, 20, 30, 45, 60, 90, 120 and 180 min postinjection. A maximum score was assigned (100%) to animals not responding within 10 seconds. Antinociception was calculated by the following formula: % antinociception=100·(test latency ) control latency)/(10 ) control latency). Dose-response lines were constructed at times of peak agonist effect, and analyzed by linear regression using […] software (17). All A50 values (95% confidence limits) shown were calculated from the linear portion of the dose-response curve. A minimum of three doses/curve and 8-10 mice were used at each dose level.
# [1] = target: T1, human Δ-opioid receptor (DOR) (Homo sapiens, UniProt P41143); assay: biochemical; assay type: binding
# T1 construct: expressed in transfected cells; host or cells: Chinese hamster ovary (CHO) cells
# [2] = target: T2, human μ-opioid receptor (MOR) (Homo sapiens, UniProt P35372); assay: biochemical; assay type: binding
# T2 construct: expressed in transfected cells; host or cells: Chinese hamster ovary (CHO) cells
# [3] = target: human δ-opioid receptor (human) (UniProt P41143); assay: ratio of Ki values from radioligand competition, reference MOR
# [4] = target: human δ-opioid receptor (human) (UniProt P41143); assay: radioligand competition against [3H]naltrindole, CHO cell membranes expressing human DOR
# human κ-opioid receptor [5] = target: T3, human κ-opioid receptor (human, UniProt P41145 1-380); assay: ratio of Ki values from radioligand competition, reference MOR
# T3 construct: whole, on cells; Assayed as membranes of CHO cells expressing the receptor; also called KOR
# Procedure: (§1) Binding was determined in Chinese hamster ovary (CHO) cell membranes expressing either the human μ-, Δ-, or κ-opioid receptors (MOR, DOR, and KOR). Cells were incubated with 12 concentrations of glycopeptide and the indicated radiolabeled ligand (Table 1, below). Non-specific binding was measured by inclusion of 10 μM naloxone. Data are the mean Kᵢ values±SEM from three experiments performed in triplicate.
# human µ-opioid receptor = target: T4, human µ-opioid receptor (human, UniProt P35372 1-400); assay: radioligand competition against [3H]DAMGO, CHO cell membranes expressing human MOR
# T4 construct: whole, on cells; Assayed as membranes of CHO cells expressing the receptor; also called MOR; mu opioid receptor
# Procedure: as §1
# human κ-opioid receptor [6] = target: T3, human κ-opioid receptor; assay: radioligand competition against [3H]U69,593, CHO cell membranes expressing human KOR
# Procedure: as §1
Molecule,A50 i.c.v. (adult male ICR mice),A50 i.v. (adult male ICR mice),Ki [1],Ratio µ:δ:κ (Ki at δ relative to µ) [3],Ratio µ:δ:κ (Ki at κ relative to µ) (human κ-opioid receptor [5]),Ki (human κ-opioid receptor [6]),other results
C[C@@H](NC(=O)[C@@H](N)Cc1ccc(O)cc1)C(=O)NCC(=O)N(C)[C@@H](Cc1ccccc1)C(=O)N[C@@H](CO)C(N)=O [Compound 2] (HELM PEPTIDE1{Y.[dA].G.[meF].S.[am]}$$$$V2.0; N-terminus assumed),2.0 pmol per mouse,0.20 µmol/kg,600 ± 44 nM,,,,
C[C@@H](NC(=O)[C@@H](N)Cc1ccc(O)cc1)C(=O)NCC(=O)N(C)[C@@H](Cc1ccccc1)C(=O)N[C@@H](CO[C@@H]1OC[C@@H](O)[C@H](O)[C@H]1O)C(N)=O [Compound 3] (H-Y[dA]G[NMeF]S(X1)-NH2; N-terminus assumed),2.0 pmol per mouse,0.27 µmol/kg,730 ± 66 nM,,,,Ki [2]: 1.3 ± 0.16 nM
C[C@@H](NC(=O)[C@@H](N)Cc1ccc(O)cc1)C(=O)NCC(=O)N(C)[C@@H](Cc1ccccc1)C(=O)N[C@@H](CO[C@@H]1O[C@H](CO)[C@@H](O)[C@H](O)[C@H]1O)C(N)=O [Compound 4] (H-Y[dA]G[NMeF]S(βGlc)-NH2; N-terminus assumed),19 pmol per mouse,0.72 µmol/kg,> 5000 nM,,,,"duration of action (adult male ICR mice; after i.c.v. administration, tail-flick): > 180 min; Ki [2]: 1.3 ± 0.09 nM"
C[C@@H](NC(=O)[C@@H](N)Cc1ccc(O)cc1)C(=O)NCC(=O)N(C)[C@@H](Cc1ccccc1)C(=O)N[C@@H](CO[C@@H]1O[C@H](CO)[C@@H](O[C@@H]2O[C@H](CO)[C@H](O)[C@H](O)[C@H]2O)[C@H](O)[C@H]1O)C(N)=O [Compound 5] (H-Y[dA]G[NMeF]S(X2)-NH2; N-terminus assumed),2.0 pmol per mouse,1.15 µmol/kg,1600 ± 129 nM,,,,
"C[C@@H](NC(=O)[C@@H](N)Cc1ccc(O)cc1)C(=O)NCC(=O)N(C)[C@@H](Cc1ccccc1)C(=O)NCCO [DAMGO 1, [D-Ala^2,Me-Phe^4Gly^5(ol)]enkephalin, reference compound]",30 pmol per mouse,1.88 µmol/kg,,,,,
"CN1CC[C@]23c4c5ccc(O)c4O[C@H]2[C@@H](O)C=C[C@H]3[C@H]1C5 [Morphine, reference compound]",,7.84 µmol/kg,,,,,
"DAMGO [D-Ala^2,Me-Phe^4Gly^5(ol)]enkephalin (peptide)",,,,1900,,,Ki [4]: 990 nM
B1,,,,2400,530,350 nM,Ki (human µ-opioid receptor): 0.66 nM
B2,,,,880,280,190 nM,Ki (human µ-opioid receptor): 0.68 nM
B3,,,,3800,130,170 nM,
B4,,,,560,120,160 nM,
